In publication PMC3898461 (Biochemistry, 2013):

Target: MurQ-EC (MurNAc 6P hydrolase from Escherichia coli) (Escherichia coli, UniProt P76535)
Assay: coupled spectrophotometric assay of D-lactate release
Type: biochemical

Chain of MurQ-EC (MurNAc 6P hydrolase from Escherichia coli) (P76535 whole entry): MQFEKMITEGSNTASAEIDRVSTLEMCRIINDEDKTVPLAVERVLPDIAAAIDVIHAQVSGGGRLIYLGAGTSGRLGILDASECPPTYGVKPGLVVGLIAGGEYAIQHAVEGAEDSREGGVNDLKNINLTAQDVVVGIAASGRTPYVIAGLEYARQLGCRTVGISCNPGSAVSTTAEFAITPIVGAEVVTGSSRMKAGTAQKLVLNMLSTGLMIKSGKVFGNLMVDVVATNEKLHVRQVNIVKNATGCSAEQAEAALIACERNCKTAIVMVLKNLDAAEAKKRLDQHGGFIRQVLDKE

Ki [µM]	SMILES
1100 ± 300	CC(=O)N[C@@H](CO)[C@@H](O)[C@H](O)[C@H](O)COP(=O)(O)O [compound 1]
230 ± 20	CC(=O)N[C@@H](CO)[C@@H](O[C@H](C)C(=O)O)[C@H](O)[C@H](O)COP(=O)(O)O [compound 2]
